Results published in patent publication US20100282247A1, “TREATMENT OF PULMONARY DISORDERS WITH AEROSOLIZED MEDICAMENTS SUCH AS VANCOMYCIN” (Novartis AG, priority 2007, published 2010).

Assays:
[1] = aerosolized versus systemic vancomycin, n=10, high suspicion for MRSA respiratory infection; cited from earlier work
gram-positive bacteria = conditions: P<=0.05, cited from earlier work
[2] = system: Gram-positive, pneumonia-causing bacteria; test: Reference MIC in tracheal aspirates (TA); format: cell-based, Staph species; conditions: locally in TA
Protocol: The dose-response to aerosolized vancomycin, administered in accordance with one or more embodiments of devices, apparatus and/or methods of the present invention was evaluated, as was the ability to deliver a predefined target multiple of an MIC for Gram-positive bacteria causing pneumonia, including, Staph species, in the tracheal aspirates (TA). […] Thus the desired multiple is 128 μg/mL.

S. aureus = conditions: lowered by CLSI; cited from earlier work
[3] = system: vancomycin intermediate S. aureas; conditions: estimated; cited from earlier work
[4] = parenterally administered; cited from earlier work
[5] = system: vancomycin resistant S. aureas; conditions: estimated; printed with "or more"; cited from earlier work
[6] = system: vancomycin susceptable S. aureas; conditions: estimated; cited from earlier work
[7] = in vivo
Description: One or more embodiments of the invention comprise systems and method for delivering relatively high concentrations of medicament without undue precipitation of the medicament in the delivery system. The on-vent adapter with the pattern of aerosol generation is designed to allow up to 90% of aerosol enter the artificial airway and allow 45-80% of dose to reach aerosol to the lungs. Hand Held adapter delivers inhaled mass of 75-90% with 40-55% of dose reaching the lungs as aerosol (based on AMIK phase II Scintigraphy.) Initially in vitro testing was showing precipitation of Vancomycin in powder form on the inspiratory filter.

Compound | sputum vancomycin concentrations [1] | CDC-NNIS diagnostic criteria for ventilator-associated pneumonia (VAP) (gram-positive bacteria; aerosolized vancomycin (n=14) and/or gentamicin-sulfate, placebo 75.0% to 78.6%) | WBC at Day 14 (gram-positive bacteria; versus placebo) | bacterial resistance (gram-positive bacteria; versus placebo) | clinical pulmonary infection score CPIS (gram-positive bacteria; versus placebo) | use of systemic antibiotics (gram-positive bacteria; versus placebo) | ventilator weaning (gram-positive bacteria; versus placebo) | reference MIC value [2] [µg/mL] | vancomycin breakpoint (S. aureus) [µg/mL] | reference MIC [3] [µg/mL] | levels in lung epithelial lining fluid as share of those seen in serum [4] [%] | reference MIC [5] [µg/mL] | reference MIC [6] [µg/mL] | dose reaching the lungs as aerosol [7] | inhaled mass [7]
CN[C@H](CC(C)C)C(=O)N[C@H]1C(=O)N[C@@H](CC(N)=O)C(=O)N[C@H]2C(=O)N[C@H]3C(=O)N[C@H](C(=O)N[C@H](C(=O)O)c4cc(O)cc(O)c4-c4cc3ccc4O)[C@H](O)c3ccc(c(Cl)c3)Oc3cc2cc(c3O[C@@H]2O[C@H](CO)[C@@H](O)[C@H](O)[C@H]2O[C@H]2C[C@](C)(N)[C@H](O)[C@H](C)O2)Oc2ccc(cc2Cl)[C@H]1O [vancomycin] | significantly increases | 35.7% to 73.6% | lower | reduced | reduced | reduced | increased | 32 | 2 | 8 to 16 | ~14 | 16 to 32 | 2 to 4 | – | –
NCC[C@H](O)C(=O)N[C@@H]1C[C@H](N)[C@@H](O[C@H]2O[C@H](CN)[C@@H](O)[C@H](O)[C@H]2O)[C@H](O)[C@H]1O[C@H]1O[C@H](CO)[C@@H](O)[C@H](N)[C@H]1O [AMIK] | – | – | – | – | – | – | – | – | – | – | – | – | – | 40-55% | 75-90%
